This experiment concerns the target T1, KRAS G12C (Homo sapiens, UniProt P01116, G12C).
T1 construct: purchased Reactionbiology
Description: KRAS G12C NEA-HTRF experiment (SOS1-catalyzed displacement of GDP by GTP). It counts as biochemical. The procedure, abridged:
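His-tagged KRAS G12C preloaded with DY647-GDP was preincubated 15 min at 20 °C with compound, then exchanged with SOS1 (0.2 μM working solution) and GTP (200 μM working solution) for 2 h at 20 °C in the dark. HTRF 665/615 nm ratio with anti-His-Tb was normalised to T0 and no-compound controls; IC50 by four-parameter fit.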
For orientation: TR-FRET usually uses a lanthanide donor and a delayed reading to cut background.
T1 sequence (P01116 1-188 isoform P01116-2 G12C): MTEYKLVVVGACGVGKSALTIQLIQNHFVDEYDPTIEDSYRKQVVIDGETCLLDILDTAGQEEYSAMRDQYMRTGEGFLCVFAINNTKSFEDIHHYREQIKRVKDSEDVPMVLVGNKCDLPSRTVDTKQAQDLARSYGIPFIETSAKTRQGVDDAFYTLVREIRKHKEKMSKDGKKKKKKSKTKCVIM
One may read the IC50 as the point on the concentration scale where inhibition reaches its midpoint. Low readings indicate inhibition by little substance, high ones a need for much substance. The compound `C=CC(=O)N1CCN2C(=O)c3c(N[C@H](C)c4ccccc4)nc(-c4c(O)cccc4F)c(Cl)c3OC[C@H]2C1` [Z28, (6aR)-8-acryloyl-4-chloro-3-(2-fluoro-6-hydroxyphenyl)-1-(((R)-1-phenylethyl)amino)-6,6a,7,8,9,10-hexahydro-12H-pyrazino[2,1-c]pyrido[3,4-f][1,4]oxazepin-12-one] returned an IC50 of 0.113 µM.
Next, `C=CC(=O)N1CCN2C(=O)c3c(N4CC(NC)CC4(C)C)nc(-c4ccccc4F)c(Cl)c3OC[C@H]2C1` (stereo partly drawn) [Z661, (6aR)-8-acryloyl-4-chloro-1-(2,2-dimethyl-4-(methylamino)pyrrolidin-1-yl)-3-(2-fluorophenyl)-6,6a,7,8,9,10-hexahydro-12H-pyrazino[2,1-c]pyrido[3,4-f][1,4]oxazepin-12-one]: 0.0329 µM.
`C=CC(=O)N1CCN2C(=O)c3c(N4CCN(C(=O)CC)C[C@@H]4C)nc(-c4ccccc4F)c(Cl)c3OC[C@H]2C1` [Z477, (R)-8-acryloyl-4-chloro-3-(2-fluorophenyl)-1-((S)-2-methyl-4-propionylpiperazin-1-yl)-6,6a,7,8,9,10-hexahydro-12H-pyrazino[2,1-c]pyrido[3,4-f][1,4]oxazepin-12(6aH)-one] showed an IC50 of 0.057 µM.
As to `C=CC(=O)N1CCN2C(=O)c3c(N4CC(N(C)CC(F)F)CC4(C)C)nc(-c4ccccc4F)c(Cl)c3OCC2C1` (single isomer, unassigned) [Z659-2], the IC50 amounted to 0.0093 µM.
As for `C=CC(=O)N1CCN2C(=O)c3c(N4C[C@H](N5CC(F)(F)C5)CC4(C)C)nc(-c4ccccc4F)c(Cl)c3OC[C@H]2C1` (single isomer, unassigned) [Z525-1], the IC50 came to 0.365 µM.
In the case of `C=CC(=O)N1CCN2C(=O)c3c(N4CCOC(C)(C)C4)nc(-c4c(O)cccc4F)c(Cl)c3OC[C@H]2C1` [Z37, (6aR)-8-acryloyl-4-chloro-1-(2,2-dimethylmorpholino)-3-(2-fluoro-6-hydroxyphenyl)-6,6a,7,8,9,10-hexahydro-12H-pyrazino[2,1-c]pyrido[3,4-f][1,4]oxazepin-12-one] it was 0.167 µM; in that of `C=CC(=O)N1CCN2C(=O)c3c(N4C[C@@H](N5CC(F)(F)C5)CC4(C)C)nc(-c4ccccc4F)c(Cl)c3OC[C@H]2C1` (single isomer, unassigned) [Z525-2], 0.0385 µM.
In turn, `C=CC(=O)N1CCN2C(=O)c3c(N4C[C@H](N5CCC5)CC4(C)C)nc(-c4ccccc4F)c(Cl)c3OC[C@H]2C1` (single isomer, unassigned) [Z471-2] displayed an IC50 of 0.461 µM.
In the case of `C=CC(=O)N1CCN2C(=O)c3c(N4C[C@H](N5CCN(C)CC5)C[C@@H]4C)nc(-c4ccccc4F)c(Cl)c3OC[C@H]2C1` [Z470-1] it was 0.258 µM; in that of `C=CC(=O)N1CCN2C(=O)c3c(N4C[C@H](N5CCN(C)CC5)CC4(C)C)nc(-c4c(F)cccc4Cl)c(Cl)c3OC[C@H]2C1` (single isomer, unassigned) [Z635-2], 0.113 µM; in that of `C=CC(=O)N1CCN2C(=O)c3c(N4C[C@@H](N(C)C)CC4(C)C)nc(-c4ccccc4)c(Cl)c3OC[C@H]2C1` (single isomer, unassigned) [Z655-1], 0.406 µM.
Regarding `C=CC(=O)N1CCN2C(=O)c3c(N4CC(N5CCC(F)(F)C5)CC4(C)C)nc(-c4ccccc4F)c(Cl)c3OC[C@H]2C1` (stereo partly drawn) [Z532, (6aR)-8-acryloyl-4-chloro-1-(3,3-difluoro-5′,5′-dimethyl-[1,3′-bipyrrolidin]-1′-yl)-3-(2-fluorophenyl)-6,6a,7,8,9,10-hexahydro-12H-pyrazino[2,1-c]pyrido[3,4-f][1,4]oxazepin-12-one], the IC50 is 0.044 µM.
Compound `C=CC(=O)N1CCN2C(=O)c3c(N4C[C@@H](N5CC(OC)C5)CC4(C)C)nc(-c4ccccc4F)c(Cl)c3OC[C@H]2C1` [Z479-1, (R)-8-acryloyl-4-chloro-3-(2-fluorophenyl)-1-((S)-4-(3-methoxyazetidin-1-yl)-2,2-dimethylpyrrolidin-1-yl)-6,6a,7,8,9,10-hexahydro-12H-pyrazino[2,1-c]pyrido[3,4-f][1,4]oxazepin-12-one] yielded a half-maximal inhibitory concentration (IC50) of 0.0652 µM.
Next, `C=CC(=O)N1CCN2C(=O)c3c(N4CCCC45CC5)nc(-c4c(O)cccc4F)c(Cl)c3OC[C@H]2C1` [Z56, (6aR)-8-acryloyl-4-chloro-3-(2-fluoro-6-hydroxyphenyl)-1-(4-azaspiro[2.4]heptan-4-yl)-6,6a,7,8,9,10-hexahydro-12H-pyrazino[2,1-c]pyrido[3,4-f][1,4]oxazepin-12-one]: 0.085 µM; `C=CC(=O)N1CCN2C(=O)c3c(N4CC[C@@H](N(C)C)C4(C)C)nc(-c4ccccc4F)c(Cl)c3OC[C@H]2C1` [Z502-1, (6aR)-8-acryloyl-4-chloro-1-(3-(dimethylamino)-2,2-dimethylpyrrolidin-1-yl)-3-(2-fluorophenyl)-6,6a,7,8,9,10-hexahydro-12H-pyrazino[2,1-c]pyrido[3,4-f][1,4]oxazepin-12(6aH)-one]: 0.28 µM.
In the case of `C=CC(=O)N1CCN2C(=O)c3c(N4C[C@H](N5CC(F)C5)CC4(C)C)nc(-c4ccccc4F)c(F)c3OC[C@H]2C1` [Z654-2, (R)-8-acryloyl-4-fluoro-1-((R)-4-(3-fluoroazetidin-1-yl)-2,2-dimethylpyrrolidin-1-yl)-3-(2-fluorophenyl)-6,6a,7,8,9,10-hexahydro-12H-pyrazino[2,1-c]pyrido[3,4-f][1,4]oxazepin-12-one] it was 0.168 µM.
In the case of `C=CC(=O)N1CCN2C(=O)c3c(NC(C)(C)C)nc(-c4ccccc4F)c(Cl)c3OC[C@H]2C1` [Z457, (R)-8-acryloyl-1-(tert-butylamino)-4-chloro-3-(2-fluorophenyl)-6,6a,7,8,9,10-hexahydro-12H-pyrazino[2,1-c]pyrido[3,4-f][1,4]oxazepin-12-one] it was 0.133 µM; in that of `C=CC(=O)N1CCN2C(=O)c3c(N4CC(C(=O)O)CC4(C)C)nc(-c4c(O)cccc4F)c(Cl)c3OC[C@H]2C1` (stereo partly drawn) [Z458, 1-((6aR)-8-acryloyl-4-chloro-3-(2-fluoro-6-hydroxyphenyl)-12-oxo-6,6a,7,8,9,10-hexahydro-12H-pyrazino[2,1-c]pyrido[3,4-f][1,4]oxazepin-1-yl)-5,5-dimethylpyrrolidine-3-carboxylic acid], 0.0139 µM; in that of `C=CC(=O)N1CCN2C(=O)c3c(N4CCC(OC)C4(C)C)nc(-c4c(N)cccc4F)c(Cl)c3OC[C@H]2C1` (stereo partly drawn) [Z506, (6aR)-8-acryloyl-3-(2-amino-6-fluorophenyl)-4-chloro-1-(3-methoxy-2,2-dimethylpyrrolidin-1-yl)-6,6a,7,8,9,10-hexahydro-12H-pyrazino[2,1-c]pyrido[3,4-f][1,4]oxazepin-12-one], 0.0183 µM.
`C=CC(=O)N1CCN2C(=O)c3c(N4C[C@@H](N5CCC5)CC4(C)C)nc(-c4ccccc4F)c(Cl)c3OC[C@H]2C1` (single isomer, unassigned) [Z471-1] displayed an IC50 of 0.073 µM.
Next, `C=CC(=O)N1CCN2C(=O)c3c(N4CCN(C)C[C@@H]4C)nc(-c4c(F)cccc4Cl)c(Cl)c3OC[C@H]2C1` [Z547, (6aR)-8-acryloyl-4-chloro-3-(2-chloro-6-fluorophenyl)-1-((S)-2,4-dimethylpiperazin-1-yl)-6,6a,7,8,9,10-hexahydro-12H-pyrazino[2,1-c]pyrido[3,4-f][1,4]oxazepin-12-one]: 0.139 µM; `C=CC(=O)N1CCN2C(=O)c3c(N4C[C@H](N(C)CCO)CC4(C)C)nc(-c4ccccc4F)c(Cl)c3OC[C@H]2C1` (single isomer, unassigned) [Z658-2]: 0.142 µM; `C=CC(=O)N1CCN2C(=O)c3c(N4C[C@H](N5CCN(C)CC5)CC4(C)C)nc(-c4ccccc4F)c(Cl)c3OC[C@H]2C1` (single isomer, unassigned) [Z454-2]: 0.0355 µM.
As for `C=CC(=O)N1CCN2C(=O)c3c(N4CCN(C)C[C@@H]4C)nc(C#CC)c(Cl)c3OC[C@H]2C1` [Z459, (R)-8-acryloyl-4-chloro-1-((S)-2,4-dimethylpiperazin-1-yl)-3-(prop-1-yn-1-yl)-6,6a,7,8,9,10-hexahydro-12H-pyrazino[2,1-c]pyrido[3,4-f][1,4]oxazepin-12-one], the IC50 amounted to 9.41 µM.
Next, `C=CC(=O)N1CCN2C(=O)c3c(N4C[C@H](N(C)C)CC4(C)C)nc(-c4c(F)ccc(F)c4O)c(Cl)c3OC[C@H]2C1` (single isomer, unassigned) [Z475-2]: 0.0793 µM; `C=CC(=O)N1CCN2C(=O)c3c(N4C[C@@H](N5CCN(C)CC5)CC4(C)C)nc(-c4ccccc4F)c(Cl)c3OC[C@H]2C1` (single isomer, unassigned) [Z454-1]: 0.0093 µM; `C=CC(=O)N1CCN2C(=O)c3c(N4CC(N(C)C)CC4(C)C)nc(-c4ccccc4F)c(Cl)c3OC[C@H]2C1` (single isomer, unassigned) [Z453-2]: 0.12 µM.
Next, `C=CC(=O)N1CCN2C(=O)c3c(N4CCN(C)C[C@@H]4C)nc(-c4c(N)cccc4F)c(Cl)c3OC[C@H]2C1` [Z503, (6aR)-8-acryloyl-3-(2-amino-6-fluorophenyl)-4-chloro-1-((S)-2,4-dimethylpiperazin-1-yl)-6,6a,7,8,9,10-hexahydro-12H-pyrazino[2,1-c]pyrido[3,4-f][1,4]oxazepin-12-one]: 0.176 µM.
Next, `C=CC(=O)N1CCN2C(=O)c3c(N4C[C@@H](N5CCN(C)CC5)CC4(C)C)nc(-c4c(O)cccc4F)c(Cl)c3OC[C@H]2C1` (single isomer, unassigned) [Z469-1]: 0.005 µM.
Take `C=CC(=O)N1CCN2C(=O)c3c(N4C[C@H](N5CC(C(F)(F)F)C5)CC4(C)C)nc(-c4ccccc4F)c(Cl)c3OC[C@H]2C1` (single isomer, unassigned) [Z608-1]: the half-inhibitory concentration (IC50) came to 0.61 µM.
In the case of `C=CC(=O)N1CCN2C(=O)c3c(N4CC(N(C)CCO)CC4(C)C)nc(-c4ccccc4F)c(Cl)c3OC[C@H]2C1` (stereo partly drawn) [Z658, (6aR)-8-acryloyl-4-chloro-3-(2-fluorophenyl)-1-(4-((2-hydroxyethyl)(methyl)amino)-2,2-dimethylpyrrolidin-1-yl)-6,6a,7,8,9,10-hexahydro-12H-pyrazino[2,1-c]pyrido[3,4-f][1,4]oxazepin-12-one] it was 0.0284 µM.

The values are drawn from US20230203060A1 (GENFLEET THERAPEUTICS (SHANGHAI) INC., priority 2020, published 2023).
